In PMC3506555, “[^11C]phenytoin revisited: synthesis by [^11C]CO carbonylation and first evaluation as a P-gp tracer in rats” (EJNMMI Research, 2012):

Legend:
P-gp = system: P-gp; parameters: method as in PMID 14642487, PMID 16857389, PMID 15961982, PMID 18783208, PMID 19647170; conditions: rat and human brain; cited from earlier work
[1] = Observation of animals after probenecid administration; type: in vivo; conditions: probenecid 150 mg·kg^−1 i.v., during 30 to 40 min after administration

SMILES | Brain-to-plasma equilibrium concentration ratio (VT) at baseline (P-gp) | Breathing frequency after administration [1]
COc1cc2c(cc1OC)CN(CCc1ccc(NC(=O)c3cc(O[11CH3])c(OC)cc3NC(=O)c3cnc4ccccc4c3)cc1)CC2 [^11C]tariquidar] | about 1 | –
COC(=O)c1cnc2n1CCc1ccccc1C2=C1CCN(CCc2ccc(OCc3ccc4ccccc4n3)cc2)CC1 [^11C]laniquidar] | about 1 | –
CCCN(CCC)S(=O)(=O)c1ccc(C(=O)O)cc1 [probenecid] | – | severely depressed breathing frequency
[11CH3]NC(=O)C(CCN1CCC(O)(c2ccc(Cl)cc2)CC1)(c1ccccc1)c1ccccc1 [^11C]desmethyl loperamide] | about 1 | –
